Key:
Type in all cases: functional
SN12C = assay: Cytotoxicity against human SN12C cells assessed as cellular growth at 10 uM by SRB assay
Hs-578T = assay: Cytotoxicity against human Hs578T cells assessed as cellular growth at 10 uM by SRB assay
NCI-H23 = assay: Cytotoxicity against human NCI-H23 cells assessed as cellular growth at 10 uM by SRB assay
MDA-MB-231 = assay: Cytotoxicity against human MDA-MB-231 cells assessed as cellular growth at 10 uM by SRB assay
SNB-19 = assay: Cytotoxicity against human SNB19 cells assessed as cellular growth at 10 uM by SRB assay
U-251 = assay: Cytotoxicity against human U251 cells assessed as cellular growth at 10 uM by SRB assay
SF-295 = assay: Cytotoxicity against human SF295 cells assessed as cellular growth at 10 uM by SRB assay
DU-145 = assay: Cytotoxicity against human DU145 cells assessed as cellular growth at 10 uM by SRB assay
UACC-257 = assay: Cytotoxicity against human UACC257 cells assessed as cellular growth at 10 uM by SRB assay
MCF7 = assay: Cytotoxicity against human MCF7 cells assessed as cellular growth at 10 uM by SRB assay
RPMI-8226 = assay: Cytotoxicity against human RPMI8226 cells assessed as cellular growth at 10 uM by SRB assay
SK-MEL-2 = assay: Cytotoxicity against human SK-MEL-2 cells assessed as cellular growth at 10 uM by SRB assay
SF-268 = assay: Cytotoxicity against human SF268 cells assessed as cellular growth at 10 uM by SRB assay
KM12 = assay: Cytotoxicity against human KM12 cells assessed as cellular growth at 10 uM by SRB assay
786-0 = assay: Cytotoxicity against human 786-0 cells assessed as cellular growth at 10 uM by SRB assay
NCI-H460 = assay: Cytotoxicity against human NCI-H460 cells assessed as cellular growth at 10 uM by SRB assay
SF-539 = assay: Cytotoxicity against human SF539 cells assessed as cellular growth at 10 uM by SRB assay
CAKI-1 = assay: Cytotoxicity against human Caki1 cells assessed as cellular growth at 10 uM by SRB assay
HOP-62 = assay: Cytotoxicity against human HOP62 cells assessed as cellular growth at 10 uM by SRB assay
NCI-H522 = assay: Cytotoxicity against human NCI-H522 cells assessed as cellular growth at 10 uM by SRB assay

COc1ccc2[nH]c(C(=O)NCc3ccccc3)cc2c1
Activity (SN12C): 97.3%
Activity (Hs-578T): 112.57%
Activity (NCI-H23): 89.11%
Activity (MDA-MB-231): 91.31%
Activity (SNB-19): 101.29%
Activity (U-251): 98.45%
Activity (SF-295): 131.65%
Activity (DU-145): 111.13%
Activity (UACC-257): 103.04%
Activity (MCF7): 83.2%
Activity (RPMI-8226): 90.52%
Activity (SK-MEL-2): 108.1%
Activity (SF-268): 114.89%
Activity (KM12): 111.34%
Activity (786-0): 103.19%
Activity (NCI-H460): 110.92%
Activity (SF-539): 101.58%
Activity (CAKI-1): 87.15%
Activity (HOP-62): 104.71%
Activity (NCI-H522): 90.46%

O=C(NCCc1ccccc1)c1[nH]c2ccccc2c1Cl
Activity (SN12C): 97.03%
Activity (Hs-578T): 97.21%
Activity (NCI-H23): 84.26%
Activity (MDA-MB-231): 80.08%
Activity (SNB-19): 99.04%
Activity (U-251): 92.92%
Activity (SF-295): 82.28%
Activity (DU-145): 91.9%
Activity (UACC-257): 96.54%
Activity (MCF7): 83.19%
Activity (RPMI-8226): 71.07%
Activity (SK-MEL-2): 129.02%
Activity (SF-268): 92.71%
Activity (KM12): 72.97%
Activity (786-0): 102.69%
Activity (NCI-H460): 89.75%
Activity (SF-539): 102.52%
Activity (CAKI-1): 78.12%
Activity (HOP-62): 86.43%
Activity (NCI-H522): 96.12%

O=C(NCCc1ccc(Cl)cc1)c1[nH]c2ccccc2c1Cl
Activity (SN12C): 97.33%
Activity (Hs-578T): 94.53%
Activity (NCI-H23): 92.75%
Activity (MDA-MB-231): 95.77%
Activity (SNB-19): 98.39%
Activity (U-251): 100.14%
Activity (SF-295): 98.05%
Activity (DU-145): 101.11%
Activity (UACC-257): 100.48%
Activity (MCF7): 78.35%
Activity (RPMI-8226): 96.69%
Activity (SK-MEL-2): 130.7%
Activity (SF-268): 97.34%
Activity (KM12): 94.49%
Activity (786-0): 106.07%
Activity (NCI-H460): 93.16%
Activity (SF-539): 101.07%
Activity (CAKI-1): 96.12%
Activity (HOP-62): 85.04%
Activity (NCI-H522): 101.96%

O=C(NCc1ccc(Cl)cc1)c1[nH]c2ccccc2c1Cl
Activity (SN12C): 99.33%
Activity (Hs-578T): 100.36%
Activity (NCI-H23): 95.58%
Activity (MDA-MB-231): 106.69%
Activity (SNB-19): 108.55%
Activity (U-251): 105.3%
Activity (SF-295): 94.4%
Activity (DU-145): 105.86%
Activity (UACC-257): 117.15%
Activity (MCF7): 128.42%
Activity (RPMI-8226): 90.9%
Activity (SK-MEL-2): 111.13%
Activity (SF-268): 105.1%
Activity (KM12): 95.16%
Activity (786-0): 106.78%
Activity (NCI-H460): 99.81%
Activity (SF-539): 118.51%
Activity (CAKI-1): 91.63%
Activity (HOP-62): 101.61%
Activity (NCI-H522): 103.35%

Cc1ccc(CNC(=O)c2[nH]c3ccccc3c2Cl)cc1
Activity (SN12C): 99.14%
Activity (Hs-578T): 95.86%
Activity (NCI-H23): 95.25%
Activity (MDA-MB-231): 112.08%
Activity (SNB-19): 105.35%
Activity (U-251): 92.16%
Activity (SF-295): 94.21%
Activity (DU-145): 97.89%
Activity (UACC-257): 101.14%
Activity (MCF7): 98.84%
Activity (RPMI-8226): 101.73%
Activity (SK-MEL-2): 99.35%
Activity (SF-268): 86.83%
Activity (KM12): 89.46%
Activity (786-0): 102.13%
Activity (NCI-H460): 88.87%
Activity (SF-539): 110.44%
Activity (CAKI-1): 90.46%
Activity (HOP-62): 90.94%
Activity (NCI-H522): 106.22%

CC1(C)CCc2cc(-c3ccn(S(=O)(=O)c4ccc(Cl)cc4)n3)ccc2O1
Activity (SN12C): 72.79%
Activity (Hs-578T): 99.49%
Activity (NCI-H23): 65.48%
Activity (MDA-MB-231): 76.35%
Activity (SNB-19): 100.09%
Activity (U-251): 74.2%
Activity (SF-295): 78.68%
Activity (DU-145): 88.3%
Activity (UACC-257): 64.88%
Activity (MCF7): 71.27%
Activity (RPMI-8226): 52.06%
Activity (SK-MEL-2): 92.25%
Activity (SF-268): 90.72%
Activity (KM12): 77%
Activity (786-0): 71.44%
Activity (NCI-H460): 73.79%
Activity (SF-539): 101.35%
Activity (CAKI-1): 64.29%
Activity (HOP-62): 92.92%
Activity (NCI-H522): 66.19%

CC1(C)CCc2cc(-c3ccn(S(=O)(=O)c4cccc(C(F)(F)F)c4)n3)ccc2O1
Activity (SN12C): 91.59%
Activity (Hs-578T): 107.85%
Activity (NCI-H23): 81.53%
Activity (MDA-MB-231): 95.04%
Activity (SNB-19): 103.83%
Activity (U-251): 81.96%
Activity (SF-295): 108.32%
Activity (DU-145): 98.46%
Activity (UACC-257): 81.69%
Activity (MCF7): 87.68%
Activity (RPMI-8226): 68.84%
Activity (SK-MEL-2): 107.75%
Activity (SF-268): 102.56%
Activity (KM12): 98.53%
Activity (786-0): 85.72%
Activity (NCI-H460): 90%
Activity (SF-539): 116.68%
Activity (CAKI-1): 105.83%
Activity (HOP-62): 102.63%
Activity (NCI-H522): 87.1%

Clc1ccc(-c2nc(-c3cccs3)no2)cc1
Activity (SN12C): 97.08%
Activity (Hs-578T): 136.36%
Activity (NCI-H23): 92.82%
Activity (MDA-MB-231): 81.39%
Activity (SNB-19): 103.81%
Activity (U-251): 90.3%
Activity (SF-295): 92.23%
Activity (DU-145): 119.78%
Activity (UACC-257): 109.98%
Activity (MCF7): 36.78%
Activity (RPMI-8226): 93.69%
Activity (SK-MEL-2): 116.4%
Activity (SF-268): 105.52%
Activity (KM12): 92.39%
Activity (786-0): 99.58%
Activity (NCI-H460): 110.35%
Activity (SF-539): 92.56%
Activity (CAKI-1): 102.58%
Activity (HOP-62): 97.84%
Activity (NCI-H522): 92.03%

Clc1cccc(-c2nc(-c3cccs3)no2)c1
Activity (SN12C): 100.21%
Activity (Hs-578T): 99.53%
Activity (NCI-H23): 89.88%
Activity (MDA-MB-231): 84.18%
Activity (SNB-19): 105.12%
Activity (U-251): 84.62%
Activity (SF-295): 108.42%
Activity (DU-145): 97.4%
Activity (UACC-257): 86.41%
Activity (MCF7): 33.74%
Activity (RPMI-8226): 95.28%
Activity (SK-MEL-2): 103.17%
Activity (SF-268): 102.09%
Activity (KM12): 102.96%
Activity (786-0): 94.52%
Activity (NCI-H460): 97.36%
Activity (SF-539): 102.16%
Activity (CAKI-1): 99.54%
Activity (HOP-62): 85.92%
Activity (NCI-H522): 85.77%

c1ccc(-c2nc(-c3cccs3)no2)cc1
Activity (SN12C): 91.08%
Activity (Hs-578T): 100.69%
Activity (NCI-H23): 93.94%
Activity (MDA-MB-231): 77.5%
Activity (SNB-19): 108.69%
Activity (U-251): 94.72%
Activity (SF-295): 128.58%
Activity (DU-145): 103.67%
Activity (UACC-257): 103.2%
Activity (MCF7): 52.58%
Activity (RPMI-8226): 102.22%
Activity (SK-MEL-2): 103.18%
Activity (SF-268): 105.23%
Activity (KM12): 99.88%
Activity (786-0): 107.03%
Activity (NCI-H460): 102.91%
Activity (SF-539): 105.74%
Activity (CAKI-1): 100.18%
Activity (HOP-62): 98.37%
Activity (NCI-H522): 96.9%

COc1ccc(Cl)cc1C(=O)Nc1nc2ccc(Cl)cc2s1
Activity (SN12C): 91.7%
Activity (Hs-578T): 102.47%
Activity (NCI-H23): 90.46%
Activity (MDA-MB-231): 70.89%
Activity (SNB-19): 102.79%
Activity (U-251): 87.26%
Activity (SF-295): 169.8%
Activity (DU-145): 94.89%
Activity (UACC-257): 101.95%
Activity (MCF7): 41.75%
Activity (RPMI-8226): 80.55%
Activity (SK-MEL-2): 103.7%
Activity (SF-268): 83.22%
Activity (KM12): 94.77%
Activity (786-0): 75.8%
Activity (NCI-H460): 93.65%
Activity (SF-539): 86.39%
Activity (CAKI-1): 84.36%
Activity (HOP-62): 89.42%
Activity (NCI-H522): 99.37%
